Peptide text beside a SMILES is read from it. * marks the point of attachment. βNA = c1ccc2cc(N*)ccc2c1
Tested on: HeLa cells
Experiment: GCaMP3-ML1 lysosomal Ca2+ release imaging
Type: cell-based
Conditions: GPN 200 μM; ionomycin 1 μM
Description: HeLa cells were transfected with perilysosomal GCaMP3-ML1 calcium probe, and Ratiometric image (474 and 410 nm excitation) was obtained.
GCaMP3 Ca2+ Imaging. HeLa cells were grown on 15 mm coverslips and transfected with plasmid encoding the perilysosomal-localized ML1-GCaMP3 calcium probes.

Compound	lysosomal Ca2+ release
NCC(=O)N[C@@H](Cc1ccccc1)C(=O)Nc1ccc2ccccc2c1 [GPN] (H-Gly-Phe-βNA)	induced lysosomal Ca2+ release
C[C@H](CCC(=O)O)C[C@H](C)C[C@H](C)C(=O)/C=C(\O)[C@H](C)C[C@H](C)C/C=C/[C@@H](C)[C@@H](O)[C@@H](C)[C@@H](O)C[C@@H]1CC[C@@](C)([C@H]2CC[C@@](C)([C@@H](C)O)O2)O1 [ionomycin]	induced lysosomal Ca2+ release

Source: US10881642B2, “Autophagy enhancer and use thereof” (Industry-Academic Cooperation Foundation, Yonsei University, priority 2016, dated 2021)
